Measurements published in ChEMBL document CHEMBL4385604, “Identification of Pyrrolo[2,3- d]pyrimidine-Based Derivatives as Potent and Orally Effective Fms-like Tyrosine Receptor Kinase 3 (FLT3) Inhibitors for Treating Acute Myelogenous Leukemia” (J Med Chem, 2019).
The source made the active and inactive calls. No cut-off for these calls is given here.

Legend:
BaF3 [1] = assay: cells; settings: Mus musculus, BaF3, 72 h
Description: Antiproliferative activity against mouse BAF3 cells harboring FLT3-ITD-F691L mutant measured after 72 hrs by MTT assay

BaF3 [2] = assay: cells; settings: Mus musculus, BaF3, 72 h; remark: listed apart in the source
Description: Antiproliferative activity against mouse BAF3 cells harboring FLT3-ITD mutant measured after 72 hrs by MTT assay

[3] = Plasma clearance in Sprague-Dawley rat at 5 mg/kg, po by LC-MS/MS analysis; type: ADME, organism-based
[4] = target: T1, Receptor-type tyrosine-protein kinase FLT3 (Homo sapiens, UniProt P36888)
T1 sequence (P36888 whole entry): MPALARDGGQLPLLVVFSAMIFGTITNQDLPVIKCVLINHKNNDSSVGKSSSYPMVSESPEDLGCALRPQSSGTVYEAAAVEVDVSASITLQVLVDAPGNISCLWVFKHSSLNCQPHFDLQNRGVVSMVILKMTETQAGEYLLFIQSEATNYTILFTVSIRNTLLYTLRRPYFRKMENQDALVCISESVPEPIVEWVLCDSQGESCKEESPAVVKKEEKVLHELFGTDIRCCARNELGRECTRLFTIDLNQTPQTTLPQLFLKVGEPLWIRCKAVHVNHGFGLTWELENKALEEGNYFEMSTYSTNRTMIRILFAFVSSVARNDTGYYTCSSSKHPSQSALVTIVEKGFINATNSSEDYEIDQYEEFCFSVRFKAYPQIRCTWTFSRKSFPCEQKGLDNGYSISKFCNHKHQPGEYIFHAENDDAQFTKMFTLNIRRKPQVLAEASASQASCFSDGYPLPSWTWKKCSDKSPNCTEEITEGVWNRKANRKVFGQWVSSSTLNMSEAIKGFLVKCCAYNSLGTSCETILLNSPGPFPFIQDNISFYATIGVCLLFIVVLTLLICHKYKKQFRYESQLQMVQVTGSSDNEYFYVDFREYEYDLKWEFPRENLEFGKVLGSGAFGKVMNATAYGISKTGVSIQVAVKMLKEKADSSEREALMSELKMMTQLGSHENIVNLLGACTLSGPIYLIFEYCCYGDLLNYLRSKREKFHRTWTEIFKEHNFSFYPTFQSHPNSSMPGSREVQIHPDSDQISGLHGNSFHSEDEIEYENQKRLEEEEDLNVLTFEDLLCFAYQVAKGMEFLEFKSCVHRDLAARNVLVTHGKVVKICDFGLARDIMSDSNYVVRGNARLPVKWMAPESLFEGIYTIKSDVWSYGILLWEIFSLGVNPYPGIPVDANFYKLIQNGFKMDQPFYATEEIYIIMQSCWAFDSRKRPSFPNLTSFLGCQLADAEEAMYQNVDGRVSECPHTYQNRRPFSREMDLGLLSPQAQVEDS

[5] = Elimination half-life in Sprague-Dawley rat at 5 mg/kg, po by LC-MS/MS analysis; type: ADME, organism-based; settings: in vivo, read-out: beta t1/2 (converted)
MOLM-13 [6] = assay: cells; settings: Homo sapiens, MOLM-13, 72 h
Description: Antiproliferative activity against human MOLM13 cells harboring FLT3-ITD mutant measured after 72 hrs by MTT assay

HL-60 = assay: Antiproliferative activity against human HL60 cells harboring wild-type FLT3 measured after 72 hrs by MTT assay; type: functional, cell-based; settings: HL-60, 72 h
MV4-11 [7] = assay: cells; settings: Homo sapiens, MV4-11, 72 h
Description: Antiproliferative activity against human MV4-11 cells harboring FLT3-ITD mutant measured after 72 hrs by MTT assay

BaF3 [8] = assay: cells; settings: Mus musculus, BaF3, 72 h; remark: listed apart in the source
Description: Antiproliferative activity against mouse BAF3 cells harboring FLT3-ITD-D835V mutant measured after 72 hrs by MTT assay

[9] = Oral bioavailability in Sprague-Dawley rat at 5 mg/kg by LC-MS/MS analysis; type: ADME, organism-based; settings: in vivo
RS4-11 = assay: Antiproliferative activity against human RS4:11 cells harboring wild-type FLT3 measured after 72 hrs by MTT assay; type: functional, cell-based; settings: RS4-11, 72 h
[10] = Tmax in Sprague-Dawley rat at 5 mg/kg, po by LC-MS/MS analysis; type: ADME, organism-based; settings: in vivo
MOLM-13 [11] = assay: Antitumour activity against human MOLM13 cells xenografted in NOD/SCID mouse assessed as tumour growth inhibition; type: functional, cell-based
MV4-11 [12] = assay: Antitumour activity against human MV4-11 cells xenografted in NOD/SCID mouse assessed as tumour growth inhibition; type: functional, cell-based
MOLM-13 [13] = assay: Potency index, ratio of quizartinib IC50 to test compound IC50 for human MOLM13 cells harboring FLT3-ITD mutant; type: functional

SMILES | IC50 (BaF3 [1]) [nM] | IC50 (BaF3 [2]) [nM] | CL/F [3] [mL/min/kg] | IC50 [4] [nM] | half-life [5] [h] | IC50 (MOLM-13 [6]) [nM] | IC50 (HL-60) [nM] | IC50 (MV4-11 [7]) [nM] | IC50 (BaF3 [8]) [nM] | bioavailability [9] [%] | IC50 (RS4-11) [nM] | Tmax [10] [h] | TGI (MOLM-13 [11]) | TGI (MV4-11 [12]) | Ratio IC50 (MOLM-13 [13])
CC(C)(C)c1cc(NC(=O)Nc2ccc(-c3cn(CCCCO)c4ncnc(N)c34)cc2)no1 | 13.6 | 1.73 | 801 | 16 | 2.77 | 0.14 | > 1000 | 0.876 | 14.7 | 9.8 | > 1000 | 0.31 |  |  | 
CC(C)(C)c1cc(NC(=O)Nc2ccc(-c3cn(CCN4CCOCC4)c4ncnc(N)c34)cc2)no1 | 34.8 | 1.07 |  | 20 |  | 1.15 | > 1000 | 0.329 | 52.4 |  | > 1000 |  | inactive | inactive | 
CC(C)(C)c1cc(NC(=O)Nc2ccc(-c3cn(CCC#N)c4ncnc(N)c34)cc2)no1 | 19.6 | 1.6 |  | 6 |  | 0.52 | > 1000 | 0.376 | 24.6 |  | > 1000 |  |  |  | 
CCCn1cc(-c2ccc(NC(=O)Nc3cc(C(C)(C)C)on3)cc2)c2c(N)ncnc21 | 72.1 | 2.72 |  | 15 |  | 0.736 | > 1000 | 0.403 | 41.5 |  | > 1000 |  |  |  | 
CC(C)(C)c1cc(NC(=O)Nc2ccc(-c3cn(CCN4CCN(S(C)(=O)=O)CC4)c4ncnc(N)c34)cc2)no1 | 86 | 3.59 |  | 26 |  | 10.6 | > 1000 | 14.2 | 166 |  | > 1000 |  |  |  | 
CC(C)(C)c1cc(NC(=O)Nc2ccc(-c3c[nH]c4ncnc(N)c34)cc2F)no1 | 10.7 | 0.25 | 56.3 | 4 | 2.54 | 0.007 | > 1000 | 0.131 | 18 | 25.6 | > 1000 | 0.88 |  |  | 
CC#CCn1cc(-c2ccc(NC(=O)Nc3cc(C(C)(C)C)on3)cc2)c2c(N)ncnc21 | 51.2 | 6.18 |  | 26 |  | 1.15 | > 1000 | 3.92 | 86.4 |  | > 1000 |  |  |  | 
CCN(CC)C(=O)n1cc(-c2ccc(NC(=O)Nc3cc(C(C)(C)C)on3)cc2)c2c(N)ncnc21 | 28.2 | 3.1 |  | 31 |  | 1.95 | > 1000 | 1.73 | 28.5 |  | > 1000 |  |  |  | 
C=CCn1cc(-c2ccc(NC(=O)Nc3cc(C(C)(C)C)on3)c(F)c2)c2c(N)ncnc21 | 82.4 | 3.04 |  | 17 |  | 0.65 | > 1000 | 2.34 | 51.9 |  | > 1000 |  |  |  | 
C#CCn1cc(-c2ccc(NC(=O)Nc3cc(C(C)(C)C)on3)c(F)c2)c2c(N)ncnc21 | 16.1 | 2.48 |  | 46 |  | 0.389 | > 1000 | 0.434 | 102 |  | > 1000 |  |  |  | 
CCOCCn1cc(-c2ccc(NC(=O)Nc3cc(C(C)(C)C)on3)c(F)c2)c2c(N)ncnc21 | 42.7 | 4.6 |  | 49 |  | 1.55 | > 1000 | 1.34 | 55.4 |  | > 1000 |  |  |  | 
Cn1cc(-c2ccc(NC(=O)Nc3cc(C(C)(C)C)on3)cc2)c2c(N)ncnc21 | 27.9 | 1.44 |  | 7 |  | 0.014 | > 1000 | 0.311 | 46.2 |  | > 1000 |  |  |  | 
CC(C)(C)c1cc(NC(=O)Nc2ccc(-c3cn(CC#N)c4ncnc(N)c34)cc2)no1 | 3.61 | 0.97 | 153 | 9 | 3.7 | 0.038 | > 1000 | 0.032 | 9.17 | 11.2 | > 1000 | 0.44 |  |  | 
CC(C)(C)c1cc(NC(=O)Nc2ccc(-c3c[nH]c4ncnc(N)c34)cc2)no1 | 2.35 | 0.16 | 14.8 | 6 | 6.22 | < 0.001 | > 1000 | 0.043 | 4.83 | 22.5 | > 1000 | 0.28 | inactive | inactive | >100

Further lines, with some results ahead:

IC50 (BaF3 [1]) [nM] | IC50 (BaF3 [2]) [nM] | CL/F [3] [mL/min/kg] | IC50 [4] [nM] | half-life [5] [h] | IC50 (MOLM-13 [6]) [nM] | IC50 (HL-60) [nM] | IC50 (MV4-11 [7]) [nM] | IC50 (BaF3 [8]) [nM] | bioavailability [9] [%] | IC50 (RS4-11) [nM] | Tmax [10] [h] | SMILES | TGI (MOLM-13 [11]) | TGI (MV4-11 [12]) | Ratio IC50 (MOLM-13 [13])
28.6 | 0.95 |  | 21 |  | 0.049 | > 1000 | 0.149 | 50.1 |  | > 1000 |  | COCCn1cc(-c2ccc(NC(=O)Nc3cc(C(C)(C)C)on3)cc2)c2c(N)ncnc21 |  |  | 
12.6 | 5.3 | 255 | 20 | 4.22 | 0.971 | > 1000 | 0.1 | 12.2 | 12.1 | > 1000 | 0.5 | CC(C)n1cc(-c2ccc(NC(=O)Nc3cc(C(C)(C)C)on3)cc2)c2c(N)ncnc21 |  |  | 
57.8 | 5.09 |  | 30 |  | 1.02 | > 1000 | 1.75 | 93.7 |  | > 1000 |  | C=C(C)Cn1cc(-c2ccc(NC(=O)Nc3cc(C(C)(C)C)on3)cc2)c2c(N)ncnc21 |  |  | 
228 | 6.06 |  | 70 |  | 2.85 | > 1000 | 1.79 | 185 |  | > 1000 |  | C=CCCCCn1cc(-c2ccc(NC(=O)Nc3cc(C(C)(C)C)on3)cc2)c2c(N)ncnc21 |  |  | 
> 200 | 8.67 |  | 9 |  | 2.56 | > 1000 | 1.75 | 156 |  | > 1000 |  | CC(C)(C)c1cc(NC(=O)Nc2ccc(-c3cn(CCN4CCNCC4)c4ncnc(N)c34)cc2)no1 |  |  | 
32.1 | 0.99 |  | 9 |  | 0.193 | > 1000 | 0.069 | 61.8 |  | > 1000 |  | CC(C)(C)c1cc(NC(=O)Nc2ccc(-c3cn(CCCN4CCOCC4)c4ncnc(N)c34)cc2)no1 | inactive | inactive | 
134 | 8.45 |  | 86 |  | 2.5 | > 1000 | 1.76 | 95.4 |  | > 1000 |  | CC(C)(C)c1cc(NC(=O)Nc2ccc(-c3cn(Cc4ccccc4)c4ncnc(N)c34)cc2)no1 |  |  | 
216 | 8.67 |  | 113 |  | 2.77 | > 1000 | 10.3 | 305 |  | > 1000 |  | CC(C)=CCn1cc(-c2ccc(NC(=O)Nc3cc(C(C)(C)C)on3)cc2)c2c(N)ncnc21 |  |  | 
13.9 | 1.66 | 28.3 | 13 | 2.78 | 0.262 | > 1000 | 0.602 | 21.1 | 40 | > 1000 | 0.83 | C#CCn1cc(-c2ccc(NC(=O)Nc3cc(C(C)(C)C)on3)cc2)c2c(N)ncnc21 |  |  | 
28.5 | 0.92 |  | 7 |  | 0.144 | > 1000 | 0.476 | 23.1 |  | > 1000 |  | CCn1cc(-c2ccc(NC(=O)Nc3cc(C(C)(C)C)on3)cc2)c2c(N)ncnc21 |  |  | 
